Nine compounds from US10258602B2 (Ocera Therapeutics, Inc., priority 2007, dated 2019) can be followed below.

In one series the target is T1, CYP2C9 (Homo sapiens, UniProt P11712).
T1 construct: purchased BD Gentest, Becton-Dickinson (Supersomes); host or cells: insect cells
As to the kind of experiment: Cytochrome P450 inhibition, CYP2C9. It is filed as in vitro ADME. The settings on record: read-out: IC50 2C9. The source says:
(§1) K. Assay for Cytochrome P450 Inhibition
(§2) Cytochrome P450 enzymes are implicated in the phase I metabolism of drugs. The majority of drug-drug interactions are metabolism-based and, moreover, these interactions typically involve inhibition of cytochrome P450s. Six CYP450 enzymes (CYP1A2, CYP2C8, CYP2C9, CYP2C19, CYP2D6 and CYP3A4) appear to be commonly responsible for the metabolism of most drugs and the associated drug-drug interactions. Assays to determine the binding of compounds of the invention to the various metabolically important isoforms of cytochrome P450 metabolizing enzymes are commercially available, for example NoAb BioDiscoveries (Mississaugua, ON, Canada) and Absorption Systems (Exton, Pa., USA). As well, a number of appropriate methods have been described or reviewed in the literature. (White, R. E. Ann. Rev. Pharmacol. Toxicol. 2000, 40, 133-157; Li, A. P. Drug. Disc. Today 2001, 6, 357-366; Turpeinen, M.; Korhonen, L. E. Tolonen, A.; et al. Eur. J. Pharm. Sci, 2006, 29, 130-138.)
(§3) The key aspects of the experimental method were as follows: • 1. […] Assays monitored, via fluorescence detection, the formation of a fluorescent metabolite following incubation of the microsomes with a specific CYP substrate. • 3. Compounds of the present invention were tested in duplicate samples at eight test concentrations using 3-fold serial dilutions (concentration range of 0.0457 to 100 μM). • 4. For each CYP-450 enzyme, a specific inhibitor was tested in duplicate at eight concentrations as a positive control. • 5. The concentration of the inhibitor or test compound that inhibited metabolite formation by 50% (IC50) was calculated by non-linear regression analysis of the % inhibition vs. log concentration (M) curve.

Another series addresses T2, CYP1A2 (Homo sapiens, UniProt P05177).
T2 construct: purchased BD Gentest, Becton-Dickinson (Supersomes); host or cells: insect cells
T2 sequence (P05177 1-516): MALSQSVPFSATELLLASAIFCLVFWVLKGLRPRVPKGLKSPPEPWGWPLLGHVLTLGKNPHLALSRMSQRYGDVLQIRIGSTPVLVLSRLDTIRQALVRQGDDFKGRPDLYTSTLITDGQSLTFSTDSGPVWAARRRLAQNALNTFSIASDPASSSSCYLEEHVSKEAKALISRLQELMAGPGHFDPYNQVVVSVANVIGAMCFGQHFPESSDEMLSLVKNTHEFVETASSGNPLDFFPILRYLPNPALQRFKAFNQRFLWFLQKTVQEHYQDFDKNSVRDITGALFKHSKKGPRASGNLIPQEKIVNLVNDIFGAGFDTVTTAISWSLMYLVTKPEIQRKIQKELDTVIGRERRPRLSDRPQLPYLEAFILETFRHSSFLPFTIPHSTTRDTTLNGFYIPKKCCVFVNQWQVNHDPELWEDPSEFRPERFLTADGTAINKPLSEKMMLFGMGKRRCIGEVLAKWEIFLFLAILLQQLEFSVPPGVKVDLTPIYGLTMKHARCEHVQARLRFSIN
As to the kind of experiment: Cytochrome P450 inhibition, CYP1A2. The series is classed as in vitro ADME. The settings on record: read-out: IC50 1A2.
Text: as §1, §2, §3

A short description of series [1]: Pharmacokinetic analysis (oral bioavailability, elimination half-life) in the rat. It is filed as in vivo. The settings on record: oral administration, HPLC-MS. The gist of the method: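 Rat, oral dosing at 8 mg/kg (one compound at 2 mg/kg). Plasma levels by HPLC-MS, giving oral bioavailability and elimination half-life.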
The target of the next series is T3, CYP2B6 (Homo sapiens, UniProt P20813).
T3 construct: purchased BD Gentest, Becton-Dickinson (Supersomes); host or cells: insect cells
T3 sequence (P20813 1-491): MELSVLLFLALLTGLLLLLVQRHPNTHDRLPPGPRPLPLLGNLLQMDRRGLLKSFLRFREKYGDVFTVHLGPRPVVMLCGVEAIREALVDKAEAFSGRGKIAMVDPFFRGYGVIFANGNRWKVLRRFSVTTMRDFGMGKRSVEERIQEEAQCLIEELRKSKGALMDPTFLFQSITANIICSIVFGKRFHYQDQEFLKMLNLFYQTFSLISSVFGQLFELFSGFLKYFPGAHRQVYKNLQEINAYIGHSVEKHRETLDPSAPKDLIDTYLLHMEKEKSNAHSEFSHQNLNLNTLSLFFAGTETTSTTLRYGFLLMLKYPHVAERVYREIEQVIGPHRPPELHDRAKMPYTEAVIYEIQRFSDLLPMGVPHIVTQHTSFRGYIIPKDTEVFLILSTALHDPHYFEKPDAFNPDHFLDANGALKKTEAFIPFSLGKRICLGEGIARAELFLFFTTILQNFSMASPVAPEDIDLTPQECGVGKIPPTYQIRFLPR
As to the kind of experiment: Cytochrome P450 inhibition, CYP2B6. It is filed as in vitro ADME. The settings on record: read-out: IC50 2B6.
Text: as §1, §2, §3

A further series has as its target T4, CYP2A6 (Homo sapiens, UniProt P11509).
T4 construct: purchased BD Gentest, Becton-Dickinson (Supersomes); host or cells: insect cells
T4 sequence (P11509 1-494): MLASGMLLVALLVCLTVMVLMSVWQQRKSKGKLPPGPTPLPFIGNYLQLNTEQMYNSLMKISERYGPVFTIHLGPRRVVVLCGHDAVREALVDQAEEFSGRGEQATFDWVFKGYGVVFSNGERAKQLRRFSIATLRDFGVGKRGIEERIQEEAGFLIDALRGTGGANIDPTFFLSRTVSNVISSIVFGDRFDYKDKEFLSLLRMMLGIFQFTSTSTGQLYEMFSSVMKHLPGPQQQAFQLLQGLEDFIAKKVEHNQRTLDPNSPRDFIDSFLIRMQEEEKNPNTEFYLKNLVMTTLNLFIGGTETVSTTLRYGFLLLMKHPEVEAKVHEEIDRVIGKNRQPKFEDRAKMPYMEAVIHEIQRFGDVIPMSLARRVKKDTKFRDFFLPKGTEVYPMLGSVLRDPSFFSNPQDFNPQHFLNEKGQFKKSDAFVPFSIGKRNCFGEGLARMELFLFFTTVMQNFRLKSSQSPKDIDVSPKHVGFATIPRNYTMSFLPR
The experiment in a line: Cytochrome P450 inhibition, CYP2A6. The settings on record: read-out: IC50 2A6. It is filed as in vitro ADME.
Text: as §1, §2, §3

Some results are limits rather than exact numbers.

T1 sequence (P11712 whole entry): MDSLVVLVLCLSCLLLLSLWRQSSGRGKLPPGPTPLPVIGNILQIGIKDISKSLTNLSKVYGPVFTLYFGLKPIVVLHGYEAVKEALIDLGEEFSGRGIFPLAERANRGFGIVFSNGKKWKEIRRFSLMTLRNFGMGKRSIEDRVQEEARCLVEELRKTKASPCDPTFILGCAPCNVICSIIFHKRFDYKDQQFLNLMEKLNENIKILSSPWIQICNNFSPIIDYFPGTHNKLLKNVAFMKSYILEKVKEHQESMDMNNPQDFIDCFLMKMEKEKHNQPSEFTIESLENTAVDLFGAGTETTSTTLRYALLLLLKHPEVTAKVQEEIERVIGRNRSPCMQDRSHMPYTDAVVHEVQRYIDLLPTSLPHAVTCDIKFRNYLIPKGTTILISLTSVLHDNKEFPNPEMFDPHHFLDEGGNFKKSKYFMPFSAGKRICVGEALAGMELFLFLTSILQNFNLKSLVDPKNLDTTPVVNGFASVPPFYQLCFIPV

As for `CC(C)CC1NC(=O)C(C)N(C)C(=O)C(C2CC2)NCC(C)OC2CCCCC2CCCNC1=O` (mixture of isomers) [Compound 825], the IC50 at CYP2C9, at CYP1A2, at CYP2B6 and at CYP2A6 was above 100 µM in each case. For the same compound, the “Elimination Half-life (t1/2, rat, min)” value in series [1] (8 mg/kg dose) was 101 min. The “Oral Bioavailability (rat, % F)” value in series [1] (8 mg/kg dose) is on record as 37 % F.

In the case of `CC1CNC(C2CC2)C(=O)N(C)C(C)C(=O)NC(Cc2ccc(O)cc2)C(=O)NCCCC2CCCCC2O1` (mixture of isomers) [Compound 826], the IC50 at CYP2C9, at CYP1A2, on CYP2B6 and on CYP2A6 was above 100 µM each time. Further, in series [1] (8 mg/kg dose), the “Elimination Half-life (t1/2, rat, min)” value is 77 min. Further, the “Oral Bioavailability (rat, % F)” value in series [1] (8 mg/kg dose) is on record as 29 % F.

For the compound `CC(C)CC1NC(=O)C(C)N(C)C(=O)C(C2CCCCC2)NCC(C)OC2CCCCC2CCCNC1=O` (mixture of isomers) [Compound 828], the IC50 at CYP2C9, on CYP1A2, at CYP2B6 and on CYP2A6 was above 100 µM throughout.

For `C[C@@H]1C(=O)N[C@H](Cc2ccc(O)cc2)C(=O)NCCCc2cccc3c2O[C@H](CC3)CN[C@@H](C2CC2)C(=O)N1C` [Compound 803], the IC50 on CYP2C9 was above 100 µM; at CYP1A2, above 100 µM; on CYP2B6 it was 53.6 µM; at CYP2A6, above 100 µM. For the same compound, the “Elimination Half-life (t1/2, rat, min)” value in series [1] (8 mg/kg dose) turned out to be 151 min. Besides, the “Oral Bioavailability (rat, % F)” value in series [1] (8 mg/kg dose) turned out to be 9 % F.

Regarding `CC(C)C[C@H]1NC(=O)[C@@H](C)N(C)C(=O)[C@H](C2CC2)NC[C@@H](C)Oc2ccccc2CC[C@H](C)NC1=O` [Compound 807], the IC50 on CYP2C9, on CYP1A2, on CYP2B6 and at CYP2A6 was above 100 µM each time. Besides, the “Oral Bioavailability (rat, % F)” value in series [1] (8 mg/kg dose) worked out at 23 % F. For the same compound, in series [1] (plasma, 8 mg/kg dose, read-out: Elimination Half-life (t1/2, rat, min)), the half-life turned out to be 197 min.

Take `C[C@@H]1C(=O)N[C@H](Cc2ccc(O)cc2)C(=O)NCCCc2ccc(F)cc2OCCN[C@@H](C2CC2)C(=O)N1C` [Compound 809]: the IC50 on CYP2C9, at CYP1A2, on CYP2B6 and on CYP2A6 was above 100 µM in each case.

`CC(C)C[C@H]1NC(=O)[C@@H](C)N(C)C(=O)[C@H](C2CC2)NCCOc2cc(F)ccc2CCCNC1=O` [Compound 810]: the IC50 on CYP2C9 is above 100 µM; at CYP1A2, 69 µM; on CYP2B6, 102 µM; at CYP2A6, above 100 µM. Besides, in series [1] (8 mg/kg dose), the “Elimination Half-life (t1/2, rat, min)” value was 116 min. In series [1] (8 mg/kg dose), the “Oral Bioavailability (rat, % F)” value came to 15 % F.

Turning to `CC1NC(C2CC2)C(=O)N(C)C(C)C(=O)NC(Cc2ccc(O)cc2)C(=O)NCCCc2ccccc2OC1C` (centres unmarked) [Compound 820], the IC50 on CYP2C9, on CYP1A2, on CYP2B6 and on CYP2A6 was above 100 µM each time. Moreover, the “Elimination Half-life (t1/2, rat, min)” value in series [1] (8 mg/kg dose) is 137 min. Besides, the “Oral Bioavailability (rat, % F)” value in series [1] (8 mg/kg dose) was found to be 18 % F.

Regarding `CC(C)C[C@H]1NC(=O)[C@@H](C)N(C)C(=O)[C@H](C2CC2)NCCOc2cc(F)ccc2CC[C@H](C)NC1=O` [Compound 822], the IC50 on CYP2C9, at CYP1A2, on CYP2B6 and on CYP2A6 was above 100 µM each time. Further, the “Elimination Half-life (t1/2, rat, min)” value in series [1] (2 mg/kg dose (compound 822)) was 65 min. Also, the “Oral Bioavailability (rat, % F)” value in series [1] (2 mg/kg dose (compound 822)) stood at 51 % F.

As usually defined, the IC50 is the concentration at which inhibition is half-maximal.
